Assay results taken from US6894068B2, “Substituted benzimidazoles as non-nucleoside inhibitors of reverse transcriptase” (The United States of America as represented by the …, priority 1997, dated 2005).
Several values for one entry are separate records, joined by “and”; a condition that tells them apart may be missing. Equal entries are not always repeated. Where two headings read alike, the source gives them in different places.

Key:
[1] = system: HIV-1 isolate K103N; test: Cytopathic cell killing assay, MT-4 cells, isolate K103N; assay type: cell-based; details: for EC50: values in μM
Text: (§1) The various HIV isolates tested in the Figures are those corresponding to wild-type virus (NL4-3) and the other strains listed by their RT mutations. The three 4×AZT isolates included in the Figures represent AZT drug-resistant variants. For example, the 4×AZT/L100I isolate has five mutations: four mutations confer increased resistance to AZT, and the other mutation is located within the NNRTI binding pocket. TZB and nevir. (nevirapine) are two well-known NNRTIs, included in this experiment for comparison purposes.
(§2) In this Example, the antiviral and cellular toxicity of NNRTIs was investigated, using the cytopathic cell killing assay described by Yang (Yang et al., “Characteristics of a Group of Non-nucleoside Reverse Transcriptase Inhibitors with Structural Diversity and Potent Anti-Human Immunodeficiency Virus Activity,” Leukemia 9:S75-S85 [1995]). Briefly, in this method cells (e.g., the CEM-SS cell line, available from the NIAID AIDS Research and Reference Program [ARRRP]) were seeded at a density of 5×10^3 cells/well, into the wells of a 96-well microtiter plate. The cells were then infected with HIV virus (either mutant or WT), at a multiplicity of infection (MOI) previously determined to provide complete cell killing by 6 days of culture post-infection (e.g., MOI of 0.01-0.05). Each of the HIV isolates was pre-titered to induce equivalent levels of infection based on cell killing or virus production, prior to their use in these assays. A range of test compound concentrations was added to the wells in triplicate (e.g., serial half-log dilutions) to evaluate inhibition of HIV infection. Controls for each assay included drug controls (drug colorimetric control wells), drug cytotoxicity control wells (cells with drug), virus control wells (cells with virus), and cell viability controls (cells only). Positive control drugs (e.g. AZT and ddC) were also run in parallel.
(§3) After six days of incubation at 37° C., cell viability was determined spectrophotometrically at 450 nm for each well, using the metabolic reduction of XTT to a soluble colored formazan. (See, Gartner and Popovic, “Virus Isolation and Production, in Aldovini and Walker (eds.), Techniques in HIV Research, Stockton Press, NY, pp. […] [1991]; and Nara and Fischinger, “Quantitative Infectivity Assay for HIV-1 and HIV-2, ” Nature 332:469-470 [1988]).
(§4) The in vitro therapeutic index (TI50) was defined as the fold-difference between the EC50 and IC50. The results for the various compounds are included in FIGS. 8 and 19.

[2] = system: HIV-1 isolate V108I; test: Cytopathic cell killing assay, MT-4 cells, isolate V108I; assay type: cell-based; details: values in μM
Text: as §1, §2, §3, §4

[3] = system: WT and HIV-1 variants containing amino acid substitutions in RT; assay type: cell-based; details: cytopathic cell killing assay, NNRTI-resistant HIV isolates
Text: In these Tables, antiviral data are reported as the quantity of drug in μM required to reduce cell killing or virus production by 50% (EC50). The various HIV isolates tested in the Figures are those corresponding to wild-type virus (NL4-3) and the other strains listed by their RT mutations. The three 4×AZT isolates included in the Figures represent AZT drug-resistant variants.
Briefly, in this method cells (e.g., the CEM-SS cell line, available from the NIAID AIDS Research and Reference Program [ARRRP]) were seeded at a density of 5×10^3 cells/well, into the wells of a 96-well microtiter plate. The cells were then infected with HIV virus (either mutant or WT), at a multiplicity of infection (MOI) previously determined to provide complete cell killing by 6 days of culture post-infection (e.g., MOI of 0.01-0.05). Each of the HIV isolates was pre-titered to induce equivalent levels of infection based on cell killing or virus production, prior to their use in these assays. A range of test compound concentrations was added to the wells in triplicate (e.g., serial half-log dilutions) to evaluate inhibition of HIV infection. Controls for each assay included drug controls (drug colorimetric control wells), drug cytotoxicity control wells (cells with drug), virus control wells (cells with virus), and cell viability controls (cells only). Positive control drugs (e.g. AZT and ddC) were also run in parallel.
as §3
Antiviral and toxicity data were reported as the quantity of drug required to inhibit 50% of virus-induced cell killing or virus production (EC50), and the quantity of drug required to […] (IC50). The in vitro therapeutic index (TI50) was defined as the fold-difference between the EC50 and IC50.

[4] = system: HIV-1 isolate Y181C; test: Cytopathic cell killing assay, MT-4 cells, isolate Y181C; assay type: cell-based
Text: as §1, §2, §3, §4

[5] = system: HIV-1 WT virus (NL4-3); test: microbe, parasite or virus in culture; assay type: cell-based; details: for inhibitory potency against HIV-1 (CIC50), result in words: CEMSS cell culture, WT virus (NL4-3), relative to parent compounds 1 and 2; for EC50: read-out: EC50
Protocol: Evaluation of these compounds for the inhibition of HIV-1 was determined as the fifty percent cell culture inhibitory concentration (CIC50) in CEMSS cell culture with WT virus (NL4-3).
as §2, §3, §4

[6] = system: HIV-1 isolate Y188C; test: Cytopathic cell killing assay, MT-4 cells, isolate Y188C; assay type: cell-based; details: values in μM
Text: as §1, §2, §3, §4

[7] = system: HIV-1 NL4-3 (WT); test: Cytopathic cell killing assay, MT-4 cells, isolate NL4-3 (WT); assay type: cell-based
Text: as §1, §2, §3, §4

[8] = system: HIV-1 isolate V179D; test: Cytopathic cell killing assay, MT-4 cells, isolate V179D; assay type: cell-based; details: MT-4 cells
Text: as §1, §2, §3, §4

[9] = system: HIV-1 isolate K101E; test: Cytopathic cell killing assay, MT-4 cells, isolate K101E; assay type: cell-based
Text: as §1, §2, §3, §4

[10] = biological target: HIV-1 WT RT (Human immunodeficiency virus type 1 group M subtype B, UniProt P03366); test: biochemical; assay type: biochemical
[11] = system: HIV-1 isolate L100I; test: Cytopathic cell killing assay, MT-4 cells, isolate L100I; assay type: cell-based
Text: as §1, §2, §3, §4

[12] = Human immunodeficiency virus 1, MT4, read-out: EC50, isolate K103N, Table 10
[13] = Human immunodeficiency virus 1, MT4, read-out: EC50, isolate V108I, Table 10
[14] = Human immunodeficiency virus 1, MT4, read-out: EC50, isolate Y181C, Table 8, MT-4 cells
[15] = Human immunodeficiency virus 1, MT4, read-out: EC50, isolate Y181C, Table 10, values in μM
[16] = Human immunodeficiency virus 1, NL43, CEM-SS, Table 7, drug concentration required to reduce cell killing or virus production by 50%, WT
[17] = Human immunodeficiency virus 1, NL43, CEM-SS, Table 11, CEMSS/NL4-3, NRVC = no reduction in viral CPE
[18] = Human immunodeficiency virus 1, MT4, read-out: EC50, isolate Y188C, Table 10
[19] = Human immunodeficiency virus 1, NL43, MT4, Table 8, MT-4 cells, read-out: EC50, isolate NL4-3

Fc1cccc(F)c1Cn1c(-c2c(F)cccc2F)nc2c(Cl)cccc21 [Compound 3500, 4-chloro-1-(2,6-difluorobenzyl)-2-(2,6-difluorophenyl)benzimidazole]
melting point: 163 to 164 °C and 163 °C | EC50 [1, 12]: 10.2 µM | EC50 [2, 13]: 3.2 µM | cross-resistance profile, result in words [3]: inhibit HIV-1 better than TZB | EC50 [4, 14]: 7.3 µM | EC50 [4, 15]: 8.4 µM | inhibitory potency against HIV-1 (CIC50), result in words [5]: modest potency-enhancing effect | EC50 [5, 16]: 440 nM | EC50 [5, 17]: 440 nM | EC50 [6, 18]: 3.4 µM | EC50 [7, 19]: 0.4 µM

Fc1cccc(F)c1Cn1c(-c2c(F)cccc2F)nc2c(Br)cccc21 [Compound 3400, 4-bromo-1-(2,6-difluorobenzyl)-2-(2,6-difluorophenyl)benzimidazole]
melting point: 147 to 148 °C | EC50 [2, 13]: 4.2 µM | EC50 [4, 15]: 10.7 µM | EC50 [5, 16]: 370 nM | EC50 [6, 18]: 3.7 µM

Cc1ccnc2c1NC(=O)c1cccnc1N2C1CC1 [nevir., nevirapine, reference compound]
EC50 ([8]; Human immunodeficiency virus 1, MT4, read-out: EC50, isolate V179D, Table 9): 200 nM | activity against K103N, result in words ([1]; cytopathic cell killing assay): ineffective | EC50 [4, 14]: 4.9 µM | EC50 [5, 17]: 35 nM | EC50 ([9]; Human immunodeficiency virus 1, MT4, read-out: EC50, isolate K101E, Table 8, MT-4 cells): 1.1 µM | EC50 [7, 19]: 0.04 µM

CNc1cccc2c1nc(-c1c(F)cccc1F)n2Cc1c(F)cccc1F [Compound 5012, 1-(2,6-difluorobenzyl)-2-(2,6-difluorophenyl)-4-(N-methylamino)benzimidazole]
EC50 ([8]; Human immunodeficiency virus 1, MT4, read-out: EC50, isolate V179D, Table 8): 3800 nM | cross-resistance profile, result in words [3]: inhibit HIV-1 better than TZB | inhibitory potency against HIV-1 (CIC50), result in words [5]: significantly poorer inhibitors | EC50 [5, 16]: 1700 nM | EC50 [5, 17]: 1700 nM | IC50 [10]: 4.94 µM | % inhibn (1 μM) ([10]; Table 7, 1 μM drug, WT HIV-1 RT): 24%

Nc1cccc2c1nc(-c1c(F)cccc1F)n2Cc1c(F)cccc1F [Example 53]
melting point: 139 to 141 °C | EC50 [5, 17]: 460 nM | IC50 ([10]; Table 11, WT RT, read-out: IC50): 0.28 µM

[N-]=[N+]=NCc1cccc2c1nc(-c1c(F)cccc1F)n2Cc1c(F)cccc1F [Compound 70, 1-(2,6-difluorobenzyl)-2-(2,6-difluorophenyl)benzimidazol-4-yl-azidomethyl]
EC50 ([1]; Table 10, read-out: EC50, isolate K103N): 1.48 µM | EC50 ([2]; Table 10, read-out: EC50, isolate V108I): 0.026 µM | EC50 ([4]; Table 10, values in μM, read-out: EC50, isolate Y181C): 0.82 µM | EC50 ([11]; Table 10, values in μM, read-out: EC50, isolate L100I): 0.06 µM | EC50 ([5]; Table 11, CEMSS/NL4-3, NRVC = no reduction in viral CPE): 45 nM | EC50 ([6]; Table 10, read-out: EC50, isolate Y188C): 0.22 µM | EC50 ([9]; Table 10, values in μM, read-out: EC50, isolate K101E): 0.6 µM | EC50 ([7]; Table 10, values in μM, read-out: EC50, isolate NL4-3 (WT)): 0.045 µM

CN(C)c1cccc2c1nc(-c1c(F)cccc1F)n2Cc1c(F)cccc1F [Compound 3700, 1-(2,6-difluorobenzyl)-2-(2,6-difluorophenyl)-4-N,N-dimethylaminobenzimidazole]
melting point: 155 to 156 °C | EC50 [1, 12]: > 100 µM | EC50 [4, 15]: > 100 µM | EC50 ([11]; Human immunodeficiency virus 1, MT4, read-out: EC50, isolate L100I, Table 10, values in μM): 31.6 µM | EC50 [5, 16]: 2370 nM | EC50 [5, 17]: 2370 nM | inhibition at 1 µM ([10]; Table 7, 1 μM drug, WT HIV-1 RT, read-out: % inhibn (1 μM)): 77% | IC50 ([10]; read-out: IC50): 40 µM | EC50 ([7]; Human immunodeficiency virus 1, NL43, MT4, Table 10, values in μM, read-out: EC50, isolate NL4-3 (WT)): 2.88 µM

CC1Cn2c(=O)[nH]c3cccc(c32)CN1 (stereo not shown) [TIBO, 4,5,6,7-tetrahydro-5-methylimidazo[4,5,1-jk][1,4]benzodiazepin-2(1H)-one, reference compound]
EC50 ([11]; Human immunodeficiency virus 1, MT4, read-out: EC50, isolate L1001, Table 4, MT-4 cells): ≥ 17.4 µM

Cc1ccccc1-c1nc2ccccc2n1Cc1c(F)cccc1F [Compound 36, 1-(2,6-difluorobenzyl)-2-(2-methylphenyl)benzimidazole]
melting point: 139 °C | RT inhibition, result in words ([10]; WT RT): two-fold decrease in RT inhibition

Cc1cccc2c1nc(-c1c(F)cccc1F)n2Cc1ccccc1 [Compound 29, 1-benzyl-2-(2,6-difluorophenyl)-4-methylbenzimidazole]
melting point: 112 to 117 °C | RT inhibition, result in words ([10]; WT RT): decrease in inhibition

Cc1cccc2c1nc(-c1c(F)cccc1F)n2Cc1c(Cl)cccc1Cl [Compound 30, 1-(2,6-dichlorobenzyl)-2-(2,6-difluorophenyl)-4-methylbenzimidazole]
melting point: 202 to 203 °C | RT inhibition, result in words ([10]; WT RT): decrease in inhibition

Fc1cccc(F)c1-c1nc2ccccc2n1Cc1ccccc1 [Compound 28, 1-benzyl-2-(2,6-difluorophenyl)benzimidazole]
melting point: 124 °C | RT inhibition, result in words ([10]; WT RT): decrease in inhibition
